Measurements taken from US20240197726A1, “NOVEL TETRAHYDROISOQUINOLINE ALKALOID COMPOUND CONTAINING MACROCYCLE” (THE UNIVERSITY OF TOKYO, priority 2021, published 2024).
Where two headings read alike, the source gives them in different places.

Columns and labels:
Type in all cases: cell-based
[1] = system: LOX-IMVI melanoma cells; test: antitumor activity, sulforhodamine B cell growth assay, LOX-IMVI; details: LOX-IMVI, drug exposure 48 hours, read-out: GI50 value: 50% growth inhibitory concentration
Experimental: (§1) The THIQ compound containing a macrocyclic structure of the present invention was administered to various cancer cell lines, and the antitumor activity (Go value) was observed. Specifically, verification was performed according to the literature (Yamori, T.; Matsunaga, A.; Sato, S.; Yamazaki, K.; Komi, A.; Ishizu, K. et al. Cancer Res. 1999, 59, 4042) by the following procedure.
(§2) Cells were plated at an appropriate density in a 96-well plate in RPMI 1640 together with 5% fetal bovine serum, and adhered overnight. The cells were exposed to a drug for 48 hours. Then, according to the sulforhodamine B assay described by Skehan et al (Skehan P., Storeng R., Scudiero D., Monks A., McMahon J., Vistica D., Warren J. T., Bokesch H., Kenney S., Boyd M. R. J Natl. Cancer Inst, 1990, 82, 1107-1112), the cell growth rate was measured. The absorbance of the control well (C) and the test well (T) was measured at 525 nm. In addition, the time at which the drug was added was set as time 0, and the absorbance for the test well (T0) was measured. Using these measured values, the cell growth inhibitory effect (% growth=PG) was calculated by the following formula at each concentration of the drug.
(§3) (T<T0): PG=100×[(T−T0)/T]
(§4) The PG values determined above for each cell line were plotted against the concentration (logarithm) on a semi-logarithmic graph, and summarized for each visceral cancer. Concentrations at which the dose-response curve of each cell line crossed the horizontal line of PG=50%, 0%, or −50% were calculated. These concentrations were defined as Log GI50, Log TGI, and Log LC50. Actually, using two data points of the drug concentration before and after crossing each horizontal line, the drug concentration (logarithmic value) at the intersection of the straight line connecting the two points and the horizontal line for each PG was calculated.

[2] = system: MDA-MB-231 breast cancer cells; test: antitumor activity, sulforhodamine B cell growth assay, MDA-MB-231; details: MDA-MB-231, drug exposure 48 hours, read-out: GI50 value: 50% growth inhibitory concentration
Experimental: as §1, §2, §3, §4

[3] = system: HCT-15 colorectal cancer cells; test: antitumor activity, sulforhodamine B cell growth assay, HCT-15; details: HCT-15, drug exposure 48 hours, read-out: GI50 value: 50% growth inhibitory concentration
Experimental: as §1, §2, §3, §4

[4] = system: NCI-H460 lung cancer cells; test: antitumor activity, sulforhodamine B cell growth assay, NCI-H460; details: NCI-H460, drug exposure 48 hours, read-out: GI50 value: 50% growth inhibitory concentration
Experimental: as §1, §2, §3, §4

[5] = system: DMS273 lung cancer cells; test: antitumor activity, sulforhodamine B cell growth assay, DMS273; details: DMS273, drug exposure 48 hours, read-out: GI50 value: 50% growth inhibitory concentration
Experimental: as §1, §2, §3, §4

[6] = system: OVCAR-5 cervical cancer cells; test: antitumor activity, sulforhodamine B cell growth assay, OVCAR-5; details: OVCAR-5, drug exposure 48 hours, read-out: GI50 value: 50% growth inhibitory concentration
Experimental: as §1, §2, §3, §4

[7] = system: OVCAR-4 cancer cells; test: antitumor activity, sulforhodamine B cell growth assay, OVCAR-4; details: OVCAR-4, drug exposure 48 hours, read-out: GI50 value: 50% growth inhibitory concentration
Experimental: as §1, §2, §3, §4

[8] = system: HBC-4 breast cancer cells; test: antitumor activity, sulforhodamine B cell growth assay, HBC-4; details: HBC-4, drug exposure 48 hours, read-out: GI50 value: 50% growth inhibitory concentration
Experimental: as §1, §2, §3, §4

[9] = system: HBC-5 breast cancer cells; test: antitumor activity, sulforhodamine B cell growth assay, HBC-5; details: HBC-5, drug exposure 48 hours, read-out: GI50 value: 50% growth inhibitory concentration
Experimental: as §1, §2, §3, §4

[10] = system: RXF-631L kidney cancer cells; test: antitumor activity, sulforhodamine B cell growth assay, RXF-631L; details: RXF-631L, drug exposure 48 hours; read-out: GI50 value: 50% growth inhibitory concentration
Experimental: as §1, §2, §3, §4

[11] = system: SK-OV-3 cancer cells; test: antitumor activity, sulforhodamine B cell growth assay, SK-OV-3; details: SK-OV-3, drug exposure 48 hours, read-out: GI50 value: 50% growth inhibitory concentration
Experimental: as §1, §2, §3, §4

[12] = system: SF-268 central nervous system cancer cells; test: antitumor activity, sulforhodamine B cell growth assay, SF-268; details: SF-268, drug exposure 48 hours, read-out: GI50 value: 50% growth inhibitory concentration
Experimental: as §1, §2, §3, §4

[13] = system: ACHN kidney cancer cells; test: antitumor activity, sulforhodamine B cell growth assay, ACHN; details: ACHN, drug exposure 48 hours, read-out: GI50 value: 50% growth inhibitory concentration
Experimental: as §1, §2, §3, §4

[14] = system: DU-145 prostate cancer cells; test: antitumor activity, sulforhodamine B cell growth assay, DU-145; details: DU-145, drug exposure 48 hours, read-out: GI50 value: 50% growth inhibitory concentration
Experimental: as §1, §2, §3, §4

[15] = system: NCI-H522 lung cancer cells; test: antitumor activity, sulforhodamine B cell growth assay, NCI-H522; details: NCI-H522, drug exposure 48 hours, read-out: GI50 value: 50% growth inhibitory concentration
Experimental: as §1, §2, §3, §4

[16] = system: SF-295 central nervous system cancer cells; test: antitumor activity, sulforhodamine B cell growth assay, SF-295; details: SF-295, drug exposure 48 hours, read-out: GI50 value: 50% growth inhibitory concentration
Experimental: as §1, §2, §3, §4

[17] = system: HCC2998 colorectal cancer cells; test: antitumor activity, sulforhodamine B cell growth assay, HCC2998; details: HCC2998, drug exposure 48 hours, read-out: GI50 value: 50% growth inhibitory concentration
Experimental: as §1, §2, §3, §4

[18] = system: SNB-78 central nervous system cancer cells; test: antitumor activity, sulforhodamine B cell growth assay, SNB-78; details: SNB-78, drug exposure 48 hours, read-out: GI50 value: 50% growth inhibitory concentration
Experimental: as §1, §2, §3, §4

[19] = system: HT-29 colorectal cancer cells; test: antitumor activity, sulforhodamine B cell growth assay, HT-29; details: HT-29, drug exposure 48 hours, read-out: GI50 value: 50% growth inhibitory concentration
Experimental: as §1, §2, §3, §4

[20] = system: U251 central nervous system cancer cells; test: antitumor activity, sulforhodamine B cell growth assay, U251; details: U251, drug exposure 48 hours, read-out: GI50 value: 50% growth inhibitory concentration
Experimental: as §1, §2, §3, §4

[21] = system: NCI-H23 lung cancer cells; test: antitumor activity, sulforhodamine B cell growth assay, NCI-H23; details: NCI-H23, drug exposure 48 hours, read-out: GI50 value: 50% growth inhibitory concentration
Experimental: as §1, §2, §3, §4

SMILES: COC1=C(C)C(=O)C2=C(C1=O)[C@H](CNC(=O)[C@H](C)N)N1C(C2)[C@H]2c3c(cc(C)c(OC)c3O)C[C@@H]([C@@H]1C#N)N2C (some centres unmarked) [Cyanosafracin B, reference compound]
- GI50 ([1]; listed as drawing 116): 81 nM
- GI50 ([1]; listed as drawing 120): 61 nM
- GI50 [2]: 130 nM
- GI50 [3]: 390 nM
- GI50 [4]: 400 nM
- GI50 [5]: 270 nM
- GI50 [6]: 390 nM
- GI50 [7]: 290 nM
- GI50 [8]: 59 nM
- GI50 ([9]; listed as drawing 116): 82 nM
- GI50 ([9]; listed as drawing 120): 62 nM
- GI50 [10]: 400 nM
- GI50 [11]: 540 nM
- GI50 [12]: 370 nM
- GI50 [13]: 320 nM
- GI50 [14]: 490 nM
- GI50 [15]: 43 nM
- GI50 [16]: 500 nM
- GI50 [17]: 350 nM
- GI50 [18]: 63 nM
- GI50 [19]: 190 nM
- GI50 [20]: 370 nM
- GI50 [21]: 290 nM

SMILES: COc1c(C)cc2c(c1O)[C@@H]1[C@@H]3Cc4c5c(C)c6c(c4C(CNC(=O)[C@H](C)N(C)CC#CCO5)N3[C@@H](C#N)[C@H](C2)N1C)OCO6 [Compound 29]
- GI50 ([1]; Homo sapiens): 0.59 nM
- GI50 ([2]; Homo sapiens): 2.3 nM
- GI50 ([3]; Homo sapiens): 3.9 nM
- GI50 ([4]; Homo sapiens): 2.8 nM
- GI50 ([5]; Homo sapiens, DMS-273): 1.1 nM
- GI50 ([6]; Homo sapiens): 3.2 nM
- GI50 ([7]; Homo sapiens): 3.5 nM
- GI50 ([8]; HBC4): 1.5 nM
- GI50 ([9]; HBC5): 1.8 nM
- GI50 [10]: 3.1 nM
- GI50 ([11]; Homo sapiens): 5.7 nM
- GI50 ([12]; Homo sapiens): 2.8 nM
- GI50 ([13]; Homo sapiens): 2.2 nM
- GI50 ([14]; Homo sapiens): 3.5 nM
- GI50 ([15]; Homo sapiens): 0.6 nM
- GI50 ([16]; Homo sapiens): 3.4 nM
- GI50 ([17]; Homo sapiens, HCC 2998): 2.8 nM
- GI50 ([18]; Homo sapiens): 3.1 nM
- GI50 ([19]; Homo sapiens): 2 nM
- GI50 ([20]; Homo sapiens, U-251): 1.4 nM
- GI50 ([21]; Homo sapiens): 2.6 nM
